Test results taken from US20230038188A1 (priority 2021, published 2023).
Several values for one entry are separate records, joined by “and”; a condition that tells them apart may be missing. Equal entries are not always repeated.

Assays:
Type in all cases: biochemical
Conditions in all cases: 1.5 mg/ml
human thrombin = molecular target: T1, human thrombin (Homo sapiens, UniProt P00734); test: Thrombin time (plasma clotting time with added thrombin)
T1 construct: 50 μl of 0.5 U thrombin (Sigma Co., USA); purchased Sigma Co., USA
Procedure: (§1) The blood clotting inhibitory activity (thrombus formation inhibitory activity) of each of the wasp extracts prepared in Example 1 was evaluated by measuring the thrombin time, the prothrombin time and the aPTT time in the same manner as a previously reported method (Sohn et al., 2004. Kor. J. Pharmacogn 35. 52-61; Kwon et al., 2004. J. Life Science, 14. 509-513; Ryu et al., 2010. J. Life Science, 20. 922-928). As plasma, control plasma (MD Pacific Technology Co., Ltd., Huayuan Industrial Area, China) was used. The thrombin time, the prothrombin time and the aPTT time were measured by the following methods.
50 μl of 0.5 U thrombin (Sigma Co., USA), 50 μl of 20 mM CaCl2) and 10 μl of each sample extract at various concentrations were mixed in a tube of Amelung coagulometer KC-1A (Japan) at 37° C. and allowed to react for 2 minutes, and then 100 μl of plasma was added thereto and the time taken for the plasma to clot was measured. As a control, aspirin (Sigma Co., USA) was used, and a solvent control, DMSO was used instead of the sample. […] The thrombin inhibitory effect was expressed as the average of three or more repeated experiments, and the thrombin inhibitory activity was expressed as the value obtained by dividing the clotting time after sample addition by the clotting time of the solvent control.

prothrombin = test: Prothrombin time (plasma clotting time with PT reagent)
Procedure: as §1
70 μl of standard plasma (MD Pacific Co., China) and 10 μl of each sample extract at various concentrations were added to a tube of Amelung coagulometer KC-1A (Japan) and warmed at 37° C. for 3 minutes, and then 130 μl of PT reagent was added thereto. The time taken for the plasma to clot was expressed as the average of three repeated experiments. […] The prothrombin inhibitory activity was expressed as the value obtained by dividing the clotting time after sample addition by the clotting time of the solvent control.

blood clotting factors = test: Activated partial thromboplastin time (aPTT)
Procedure: as §1
Activated Partial Thromboplastin Time (aPTT)
100 μl of plasma and 10 μl of each sample extract at various concentrations were added to a tube of Amelung coagulometer KC-1A (Japan) and warmed at 37° C. for 3 minutes, and then 50 μl of aPTT reagent (Sigma, ALEXIN™) was added thereto, followed by incubation at 37° C. for 3 minutes. Thereafter, 50 μl of CaCl2) (35 mM) was added thereto, and then the time taken for the plasma to clot was measured. […] The aPTT was expressed as the average of three repeated experiments, and the blood clotting inhibitory activity was expressed as the value obtained by dividing the aPTT after sample addition by the aPTT of the solvent control.

## CC(=O)Oc1ccccc1C(=O)O [Aspirin]
Human thrombin; Table 2
  Thrombin time (blood clotting time after sample addition/blood clotting time after solvent addition): 1.54 and 1.54 ± 0.11
Human thrombin; Table 4
  Thrombin time (blood clotting time after sample addition/blood clotting time after solvent addition): 1.43 ± 0.04
prothrombin; Table 2
  Prothrombin time (blood clotting time after sample addition/blood clotting time after solvent addition): 1.44 and 1.44 ± 0.04
prothrombin; Table 4
  Prothrombin time (blood clotting time after sample addition/blood clotting time after solvent addition): 1.73 ± 0.01
Blood clotting factors; Table 2
  Blood clotting factor inhibition time (aPTT time) (sample/solvent): 1.55 and 1.55 ± 0.07
Blood clotting factors; Table 4
  Blood clotting factor inhibition time (aPT time) (sample/solvent): 1.42 ± 0.03
